{"source": "ChEMBL document CHEMBL3508693", "about": "(2016)", "key": {"[1]": {"assay": "Excretion (0-168h) of aliskiren in urine following oral administration of [14C] aliskiren hemifumarate at 3 mg.Kg-1 level in marmoset", "assay_type": "ADME, organism-based, Callithrix jacchus", "settings": "in vivo"}, "[2]": {"target": "T1, CYP1A2 (Homo sapiens, UniProt P05177)", "T1 sequence (P05177 whole entry)": "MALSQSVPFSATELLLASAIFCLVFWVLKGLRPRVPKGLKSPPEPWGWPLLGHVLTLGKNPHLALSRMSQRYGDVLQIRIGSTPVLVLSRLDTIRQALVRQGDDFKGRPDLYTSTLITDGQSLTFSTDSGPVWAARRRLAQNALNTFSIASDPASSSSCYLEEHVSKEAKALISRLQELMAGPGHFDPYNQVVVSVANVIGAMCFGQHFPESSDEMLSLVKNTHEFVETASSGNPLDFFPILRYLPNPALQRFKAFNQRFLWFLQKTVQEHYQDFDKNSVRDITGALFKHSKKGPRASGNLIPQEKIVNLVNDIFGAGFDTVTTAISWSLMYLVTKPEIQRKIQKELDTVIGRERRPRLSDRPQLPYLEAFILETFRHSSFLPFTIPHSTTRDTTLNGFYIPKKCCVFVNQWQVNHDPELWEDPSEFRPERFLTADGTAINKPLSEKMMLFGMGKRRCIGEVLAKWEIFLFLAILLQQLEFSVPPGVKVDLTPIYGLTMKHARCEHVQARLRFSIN", "assay": "Inhibitory activity of 20 uM SPP100 on 502 Pmoles of cDNA-derived CYP1A2 enzyme in microsome prepared from human lymphoblastoid cell line", "assay_type": "ADME, microsomes", "design": "conc 20 uM, interact cpd conc 50 uM", "settings": "probe phenacetin"}, "[3]": {"assay": "% of radioactivity (48h) recovered in gastrointestinal tract of receiver rat following duodenal infusion of radioactivity through bile from donor rat treated with single intravenous administration of 10 mg.Kg-1 [14C] aliskiren hemifumarate", "assay_type": "ADME, organism-based, HAN:WIST(SPF)", "settings": "in vivo"}, "[4]": {"target": "Cytochrome P450 2D6 (Homo sapiens, UniProt P10635)", "sequence (P10635 whole entry)": "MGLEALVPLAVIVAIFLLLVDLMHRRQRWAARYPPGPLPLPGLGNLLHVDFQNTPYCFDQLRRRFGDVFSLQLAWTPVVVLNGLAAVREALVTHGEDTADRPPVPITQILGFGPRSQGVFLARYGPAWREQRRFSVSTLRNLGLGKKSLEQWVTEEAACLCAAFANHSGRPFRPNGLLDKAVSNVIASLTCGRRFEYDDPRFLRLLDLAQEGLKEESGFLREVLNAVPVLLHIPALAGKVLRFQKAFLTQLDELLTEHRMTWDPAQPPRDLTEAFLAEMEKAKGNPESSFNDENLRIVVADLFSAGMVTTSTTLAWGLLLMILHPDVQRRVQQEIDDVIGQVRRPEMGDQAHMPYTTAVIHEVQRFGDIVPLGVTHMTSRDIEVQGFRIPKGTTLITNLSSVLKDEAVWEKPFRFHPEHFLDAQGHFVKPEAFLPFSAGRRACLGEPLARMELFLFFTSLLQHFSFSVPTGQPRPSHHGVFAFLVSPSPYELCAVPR", "assay": "Involvement of CYP2D6 in the metabolism of [14C] aliskiren hemifumarate based on studies with microsomes from baculovirus-infected insect cells expressing recombinant human CYP450s and studies with pooled human liver microsomes from 22 donors", "assay_type": "ADME, Microsome"}, "[5]": {"assay": "Concentration of radioactivity in the colon wall following repeated oral administration of [14C] aliskiren hemifumarate at 100 mg.Kg-1 level studied at 2h after 10th dose in rat", "assay_type": "ADME, organism-based, Albino HAN:WIST", "settings": "in vivo"}, "[6]": {"assay": "Concentration of radioactivity in the kidney medulla following repeated oral administration of [14C] aliskiren hemifumarate at 100 mg.Kg-1 level studied at 2h after 7th dose in rat", "assay_type": "ADME, organism-based, Albino HAN:WIST, Renal medulla", "settings": "in vivo"}, "[7]": {"assay": "Cmax/dose (0-96h) of total radioactivity following oral administration of [14C] aliskiren hemifumarate at 100 mg.Kg-1 level in rat", "assay_type": "ADME, organism-based, Albino HAN:WIST, Plasma", "settings": "in vivo"}, "[8]": {"assay": "% of radioactivity (48h) recovered in bile of receiver rat following duodenal infusion of radioactivity through bile from donor rat treated with single intravenous administration of 10 mg.Kg-1 [14C] aliskiren hemifumarate", "assay_type": "ADME, organism-based, HAN:WIST(SPF)", "settings": "in vivo"}, "[9]": {"assay": "Excretion of radioactivity (0-24h) in faeces following single intravenous dose of 10 mg.Kg-1 [14C] aliskiren hemifumarate in mouse", "assay_type": "ADME, organism-based, TgRasH2, Feces", "settings": "in vivo"}, "[10]": {"assay": "Excretion (0-168h) of radioactivity in faeces following oral administration of [14C] aliskiren hemifumarate at 3 mg.Kg-1 level in marmoset", "assay_type": "ADME, organism-based, Callithrix jacchus, Feces", "settings": "in vivo"}, "[11]": {"assay": "% of radioactivity (24h) recovered in faeces following single intravenous administration of 10 mg.Kg-1 [14C] aliskiren hemifumarate in male rat", "assay_type": "ADME, organism-based, HAN:WIST(SPF), Feces", "settings": "in vivo"}, "[12]": {"assay": "Excretion (48h) of radioactivity in faeces following oral administration of [14C] aliskiren hemifumarate at 100 mg.Kg-1 level in rat", "assay_type": "ADME, organism-based, Lister-Hooded, Feces", "settings": "in vivo"}, "[13]": {"assay": "Concentration of radioactivity in the colon wall following repeated oral administration of [14C] aliskiren hemifumarate at 100 mg.Kg-1 level studied at 2h after 3rd dose in rat", "assay_type": "ADME, organism-based, Albino HAN:WIST", "settings": "in vivo"}, "[14]": {"assay": "Concentration of radioactivity in the colon wall following repeated oral administration of [14C] aliskiren hemifumarate at 100 mg.Kg-1 level studied at 24h after 7th dose in rat", "assay_type": "ADME, organism-based, Albino HAN:WIST", "settings": "in vivo"}, "[15]": {"assay": "Excretion of radioactivity (24-48h) in faeces following single oral dose of 100 mg.Kg-1 [14C] aliskiren hemifumarate in rat", "assay_type": "ADME, organism-based, Albino HAN:WIST, Feces", "settings": "in vivo"}, "[16]": {"assay": "AUC (0-96 or 0-168h) of unlabeled aliskiren hemifumarate following single oral administration of aliskiren hemifumarate at 3 mg.Kg-1 level in marmoset", "assay_type": "ADME, organism-based, Callithrix jacchus", "settings": "plasma"}, "[17]": {"target": "hERG (KCNH2) (Homo sapiens, UniProt Q12809)", "sequence (Q12809 whole entry)": "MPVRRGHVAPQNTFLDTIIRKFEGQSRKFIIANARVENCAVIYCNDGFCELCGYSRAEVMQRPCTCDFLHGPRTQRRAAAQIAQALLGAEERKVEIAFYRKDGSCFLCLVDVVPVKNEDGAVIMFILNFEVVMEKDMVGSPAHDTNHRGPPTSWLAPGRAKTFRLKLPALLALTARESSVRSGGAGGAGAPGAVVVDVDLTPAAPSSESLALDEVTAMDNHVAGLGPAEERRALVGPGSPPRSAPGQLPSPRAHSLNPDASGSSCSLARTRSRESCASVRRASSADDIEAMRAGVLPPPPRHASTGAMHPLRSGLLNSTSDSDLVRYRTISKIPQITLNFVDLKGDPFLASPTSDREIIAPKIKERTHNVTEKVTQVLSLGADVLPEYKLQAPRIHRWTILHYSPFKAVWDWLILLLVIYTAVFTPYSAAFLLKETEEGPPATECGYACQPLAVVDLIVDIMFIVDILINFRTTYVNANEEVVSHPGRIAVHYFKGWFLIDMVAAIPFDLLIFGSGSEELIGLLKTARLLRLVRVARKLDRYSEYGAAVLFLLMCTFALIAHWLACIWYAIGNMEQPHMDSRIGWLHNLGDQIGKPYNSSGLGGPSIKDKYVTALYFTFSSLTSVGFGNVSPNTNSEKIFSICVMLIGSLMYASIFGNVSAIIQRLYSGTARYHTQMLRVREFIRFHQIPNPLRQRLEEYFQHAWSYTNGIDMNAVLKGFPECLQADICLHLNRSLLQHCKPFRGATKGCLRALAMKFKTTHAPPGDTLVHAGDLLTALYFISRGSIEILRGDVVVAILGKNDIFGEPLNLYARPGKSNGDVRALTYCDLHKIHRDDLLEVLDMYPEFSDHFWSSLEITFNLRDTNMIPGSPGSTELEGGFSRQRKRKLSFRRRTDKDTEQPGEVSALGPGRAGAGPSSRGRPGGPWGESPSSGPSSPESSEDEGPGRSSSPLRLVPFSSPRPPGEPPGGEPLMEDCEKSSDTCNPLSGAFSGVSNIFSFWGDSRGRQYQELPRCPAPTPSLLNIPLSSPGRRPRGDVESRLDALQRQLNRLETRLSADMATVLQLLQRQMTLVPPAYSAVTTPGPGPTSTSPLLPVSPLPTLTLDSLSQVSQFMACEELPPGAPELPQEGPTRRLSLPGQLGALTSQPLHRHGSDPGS", "assay": "Effects of 1000 uM aliskiren hemifumarate on current through cloned hERG channel expressed in human embryonic kidney cell", "assay_type": "cell-based", "design": "conc 1000 uM, dose level High", "settings": "HEK293 cells that express cloned hERG channel, read-out: Inhibitory activity"}, "[18]": {"assay": "Cmax of aliskiren hemifumarate following 4 week oral dietary dosing of aliskiren hemifumarate at 1500 mg.Kg-1 level in male mouse", "assay_type": "ADME, organism-based", "settings": "CB6F1-TGrasH2, mouse, in vivo"}, "[19]": {"assay": "Cmax of aliskiren hemifumarate following 2 week oral dosing of aliskiren hemifumarate at 100 mg.Kg-1 level studied on day 1 in female Callithrix jacchus", "assay_type": "ADME, organism-based", "settings": "marmoset, plasma"}, "[20]": {"assay": "AUC of aliskiren hemifumarate following 8 day once-daily dosing of SPP100B oral solution at 40 mg level studied on day 8 in men", "assay_type": "ADME, organism-based", "settings": "male, human, plasma"}, "[21]": {"assay": "Cmax/dose of aliskiren hemifumarate following 4 week oral dietary dosing of aliskiren hemifumarate at 1500 mg.Kg-1 level in male mouse", "assay_type": "ADME, organism-based, CB6F1-TGrasH2", "settings": "in vivo, 672 h"}, "[22]": {"assay": "Cmaxspec of aliskiren hemifumarate following 2 week oral dosing of aliskiren hemifumarate at 100 mg.Kg-1 level studied on day 1 in male Callithrix jacchus", "assay_type": "ADME, organism-based, Plasma", "settings": "marmoset, in vivo, 336 h"}, "[23]": {"assay": "AUC(0-24h) of aliskiren hemifumarate following 2 week oral dosing of aliskiren hemifumarate at 10 mg.Kg-1 level studied on day 1 in male Callithrix jacchus", "assay_type": "ADME, organism-based", "settings": "marmoset, plasma"}, "[24]": {"assay": "AUC (0-24h)/dose of aliskiren hemifumarate following 4 week oral dietary dosing of aliskiren hemifumarate at 2000 mg.Kg-1 level in male mouse", "assay_type": "ADME, organism-based, CB6F1-TGrasH2, Plasma", "settings": "in vivo"}, "[25]": {"assay": "Effect of 2 week oral dosing of aliskiren hemifumarate at 50 mg.Kg-1 level on hematological parameter values in female Callithrix jacchus", "assay_type": "toxicity, organism-based, Plasma", "settings": "marmoset, in vivo, 336 h"}, "[26]": {"assay": "Effect of 2 week oral dosing of aliskiren hemifumarate at 100 mg.Kg-1 level on plasma alkaline phosphatase level in female Callithrix jacchus", "assay_type": "toxicity, organism-based", "settings": "marmoset, 336 h"}, "[27]": {"assay": "AUCspec of aliskiren hemifumarate following 2 week oral dosing of aliskiren hemifumarate at 100 mg.Kg-1 level studied on day 1 in female Callithrix jacchus", "assay_type": "ADME, organism-based, Plasma", "settings": "marmoset, in vivo, 336 h"}, "[28]": {"assay": "Cmax/dose of aliskiren hemifumarate following 4 week oral dietary dosing of aliskiren hemifumarate at 1000 mg.Kg-1 level in male mouse", "assay_type": "ADME, organism-based, CB6F1-TGrasH2", "settings": "in vivo, 672 h"}, "[29]": {"assay": "Cmin of aliskiren hemifumarate following repeated oral administration of [14C] aliskiren hemifumarate at 100 mg.Kg-1 level studied after first dosing in rat", "assay_type": "ADME, organism-based, Albino HAN:WIST", "settings": "in vivo"}, "[30]": {"assay": "Tmax of aliskiren hemifumarate following 4 week oral dietary dosing of aliskiren hemifumarate at 500 mg.Kg-1 level in female mouse", "assay_type": "ADME, organism-based", "settings": "CB6F1-TGrasH2, mouse, in vivo"}, "[31]": {"assay": "Cmax of aliskiren hemifumarate following 2 week oral dosing of aliskiren hemifumarate at 50 mg.Kg-1 level studied on day 14 in female Callithrix jacchus", "assay_type": "ADME, organism-based", "settings": "marmoset, plasma"}, "[32]": {"assay": "Tmax of aliskiren hemifumarate following 2 week oral dosing of aliskiren hemifumarate at 100 mg.Kg-1 level studied on day 1 in male Callithrix jacchus", "assay_type": "ADME, organism-based", "settings": "marmoset, plasma"}}, "data": [{"molecule": "COCCCOc1cc(C[C@@H](C[C@H](N)[C@@H](O)C[C@H](C(=O)NCC(C)(C)C(N)=O)C(C)C)C(C)C)ccc1OC", "values": [{"measurement": "Compound recovery", "setting": "[1]", "value": 2.3, "unit": "%"}, {"measurement": "inhibition at 20 µM", "setting": "[2]", "value": 2.5, "unit": "%"}]}, {"molecule": "COCCCOc1cc(C[C@@H](C[C@H](N)[C@@H](O)C[C@H](C(=O)NCC([14CH3])([14CH3])C(N)=O)C(C)C)C(C)C)ccc1OC.O=C(O)/C=C/C(=O)O", "values": [{"measurement": "Radiolabel recovery", "setting": "[3]", "value": 59.8, "unit": "%"}, {"measurement": "Activity", "setting": "[4]", "value": "OUTCOME = Observed, VALUE = CYP2D6 contributed to a minor extent on metabolism of aliskiren"}, {"measurement": "Radiolabel recovery", "setting": "[5]", "value": "OUTCOME = Observed, VALUE = Highest radioactivity concentration was observed"}, {"measurement": "Radiolabel recovery", "setting": "[6]", "value": "OUTCOME = Detected"}, {"measurement": "Cmax normalised", "setting": "[7]", "value": "0.0042 (umol/L)/(mg/kg)"}, {"measurement": "Cmax normalised", "setting": "[7]; iv, 10 mg/kg", "value": "2.12 (umol/L)/(mg/kg)"}, {"measurement": "Radiolabel recovery", "setting": "[8]", "value": 2.2, "unit": "%"}, {"measurement": "Radiolabel recovery", "setting": "[9]", "value": 84.68, "unit": "%"}, {"measurement": "Radiolabel recovery", "setting": "[10]", "value": 97.5, "unit": "%"}, {"measurement": "Radiolabel recovery", "setting": "[11]", "value": 4.6, "unit": "%"}, {"measurement": "Radiolabel recovery", "setting": "[12]", "value": 95.25, "unit": "%"}, {"measurement": "Radiolabel recovery", "setting": "[13]", "value": "OUTCOME = Observed, VALUE = Highest radioactivity concentration was observed"}, {"measurement": "Radiolabel recovery", "setting": "[14]", "value": "OUTCOME = Observed, VALUE = Highest radioactivity concentration was observed"}, {"measurement": "Radiolabel recovery", "setting": "[15]", "value": 0.68, "unit": "%"}]}, {"molecule": "COCCCOc1cc(C[C@@H](C[C@H](N)[C@@H](O)C[C@H](C(=O)NCC(C)(C)C(N)=O)C(C)C)C(C)C)ccc1OC.COCCCOc1cc(C[C@@H](C[C@H](N)[C@@H](O)C[C@H](C(=O)NCC(C)(C)C(N)=O)C(C)C)C(C)C)ccc1OC.O=C(O)/C=C/C(=O)O", "note": "[ALISKIREN FUMARATE]", "values": [{"measurement": "AUC at 168 h", "setting": "[16]", "value": 4.55, "unit": "µM·h"}, {"measurement": "inhibition at 1000 µM", "setting": "[17]", "value": 32, "unit": "%"}, {"measurement": "Cmax", "setting": "[18]", "value": 363, "unit": "ng/mL"}, {"measurement": "Cmax", "setting": "[19]", "value": 7940, "unit": "ng/mL"}, {"measurement": "AUC at 192 h", "setting": "[20]", "value": 46.7, "unit": "ng·h/mL"}, {"measurement": "Cmax normalised", "setting": "[21]", "value": "0.242 (ng/mL)/(mg/kg/day)"}, {"measurement": "Cmax normalised", "setting": "[22]", "value": "0.072 (ug/ml)/(mg/kg)"}, {"measurement": "AUC(0-t) at 24 h", "setting": "[23]", "value": 22000, "unit": "ng·h/mL"}, {"measurement": "AUC normalised", "setting": "[24]", "value": "3.86 ((ng/mL).hours)/(mg/kg/day)"}, {"measurement": "Change in hematology", "setting": "[25]", "value": "OUTCOME = Hematological parameter values did not differ from control values. No animals died during the study."}, {"measurement": "ALP_CHANGE_TO", "setting": "[26]", "value": "OUTCOME = 2-fold increase over initial values. No animals died during the study."}, {"measurement": "AUC normalised", "setting": "[27]", "value": "0.84 ((ug.h.ml-1)/(mg/kg)"}, {"measurement": "Cmax normalised", "setting": "[28]", "value": "0.879 (ng/mL)/(mg/kg/day)"}, {"measurement": "Cmin(1)", "setting": "[29]", "value": 3.47, "unit": "nM"}, {"measurement": "Tmax", "setting": "[30]", "value": 0, "unit": "h"}, {"measurement": "Cmax", "setting": "[31]", "value": 10100, "unit": "ng/mL"}, {"measurement": "Tmax", "setting": "[32]", "value": 1, "unit": "h"}]}]}
